Patent US11553718B2, “Mic reduction with lithium ions” (priority 2014, dated 2023)

Columns and labels:
rGDA/IT (rGDA-IT) strain = test: MIC determination in CaCO3 slurry with or without lithium ions; type: cell-based, Pseudomonas mendocina; settings: Li^+ 197 mM (1380 ppm), Li2CO3
Procedure: (§1) When not otherwise indicated, the quoted bacterial counts (values are in cfu/plate) in the Tables here below are determined after 2 days following plate-out and incubation at 30° C. The counting method was as follows. The aqueous preparations were stirred well with a cotton swap (e.g. Applimed SA, No. 1102245); the excess aqueous preparation was removed by dipping it gently to the side of the aqueous preparation container, leaving approximately 200 mg of aqueous preparation on the swap. […] TSA plates were then incubated for 48 h at 30° C. Colony forming units (cfu) were then counted and reported as cfu/plate. Counts from 100 to 999 cfu per plate are reported as ≥100 cfu/plate. Counts of 1000 cfu and above per plate are reported as ≥1000 cfu/plate. Yeast and moulds were counted as described for bacteria with the following exceptions, a) Sabouraud Dextrose Agar (SDA) containing Chloramphenicol (e.g. heipha Dr. Miller GmbH, No. 1460030020) were used instead of TSA, b) SDA plates were incubated at 25° for 5 days and c) cfu were counted and reported after 48 h and 5 days of incubation. Yeast and moulds counts from 20 to 99 cfu per plate are reported as […]. Yeast and moulds counts of 100 cfu and above per plate are reported as >100 cfu/plate.
(§2) For determining the MIC, the tested microorganism, i.e. the strain of bacteria and/or strain of yeast and/or strain of mould, were freshly grown until the end of the logarithmic growth phase according to the requirements of the individual species to a density of approximately 10^7-10^9 cells/ml.
(§3) For example, fresh bacteria cultures of the bacteria E. coli, e.g. E. coli ATCC 11229, and S. aureus, e.g. S. aureus strains DSMZ 346, were prepared by inoculation of 3 ml liquid growth media (tryptic soy broth, e.g. Fluka Cat. No. 22092) from a stock culture and incubation for 16 to 20 h at 30° C. with agitation at 150 rotations per minutes (rpm) leading to a cell density of approximately 2×10^8 cells/ml. Fresh cultures of resistant bacteria, adapted to the conditions in biocide containing CaCO3 slurries, were prepared by inoculation of 50 g 75 wt.-% solid content CaCO3 slurry from a stock culture and incubated for 14 to 28 days at 30° C. without agitation.
(§4) Lithium ions were added to the aqueous preparation (e.g. CaCO3 slurry) by the addition of a water soluble lithium salt. For example to 50 g CaCO3 slurry with a solid content of 75% (w/w) 1.177 ml of a 74 g/Li2CO3 suspension was added and mixed well leading to a lithium ion concentration of 172 mM or 1205 ppm in the water phase. As another example to 50 g CaCO3 slurry with a solid content of 75 wt.-% (w/w) 0.04 ml of a 292 g/L Li3Citrate (2M) solution was added and mixed well leading to a lithium ion concentration of 19 mM or 135 ppm in the water phase.
(§5) The biocide to be tested was added to the aqueous preparation (e.g. CaCO3 slurry with or without lithium ions) in increasing concentrations starting from 0 ppm (without biocide). The concentrations ranged from concentrations higher than recommended by the supplier, to very low amounts (as low as 1 ppm or lower). Of each biocide concentration a 3 ml sample of aqueous preparation was combined with 20 μl fresh bacterial culture.
(§6) All samples were incubated at 30° C. for 24 h. After incubation colony forming units (cfu) per plate (cfu/plate) were determined as described above under bacterial count.
(§7) The MIC for bacteria is defined as the lowest concentration of biocide in the presence or absence of lithium ion amongst all samples tested, where the bacterial concentration dropped below 100 cfu/plate. The MIC for yeast and mould is defined as the lowest concentration of biocide in the presence or absence of lithium ion amongst all samples tested, where the microbial concentration dropped below 20 cfu/plate.

bacterial strain rOmyAK = test: microbe, parasite or virus in culture; type: cell-based, Pseudomonas mendocina; settings: for bacterial count: rOmy AK; for MIC ratio (MICwithout Li/MICLi) / MIC active/aequeous: rOmyAK
Procedure: as §1, §2, §3, §4, §5, §6, §7

E. coli strain ATCC11229 = test: MIC determination / bacterial count in CaCO3 slurry with or without lithium ions; type: cell-based; settings: E. coli; Li^+ 197 mM (1380 ppm), Li2CO3
Procedure: as §1, §2, §3, §4, §5, §6, §7

[1] = test system: S. aureus strain DSMZ 346; test: as above; type: cell-based; settings: S. aureus; Li^+ 329 mM (2305 ppm), Li2CO3
Procedure: as §1, §2, §3, §4, §5, §6, §7

Q: For `Cn1sccc1=O` [MIT, 2-Methyl-2H-isothiazolin-3-one], which “MIC ratio (MICwithout Li/MICLi)” value (rGDA/IT (rGDA-IT) strain) is on record?
A: Its value is 1.67.

Q: And the bacterial count (bacterial strain rOmyAK; 18 ppm MIT, 329 mM Li^+)?
A: The bacterial count was at least 100 cfu/plate.

Q: And the bacterial count (bacterial strain rOmyAK; 18 ppm MIT, no Li^+)?
A: The bacterial count was at least 1000 cfu/plate.

Q: What about the bacterial count (bacterial strain rOmyAK; 35 ppm MIT, 329 mM Li^+) of the same compound?
A: The bacterial count was 68 cfu/plate.

Q: And the bacterial count (bacterial strain rOmyAK; 35 ppm MIT, no Li^+)?
A: Its bacterial count is at least 100 cfu/plate.

Q: And the bacterial count (bacterial strain rOmyAK; 106 ppm MIT, 329 mM Li^+)?
A: The bacterial count was 0 cfu/plate.

Q: And the bacterial count (bacterial strain rOmyAK; 106 ppm MIT, no Li^+)?
A: The bacterial count was 0 cfu/plate.

Q: And the “MIC ratio (MICwithout Li/MICLi)” value (bacterial strain rOmyAK; Li^+ 197 mM (1380 ppm), Li2CO3)?
A: Its value is 1.

Q: What about the MIC active/aequeous (bacterial strain rOmyAK; Li^+ 329 mM (2305 ppm), Li2CO3) of the same compound?
A: Its MIC active/aequeous is 35 ppm.

Q: And the “MIC ratio (MICwithout Li/MICLi)” value (bacterial strain rOmyAK; Li^+ 329 mM (2305 ppm), Li2CO3)?
A: The value was 3.

Q: And the “MIC ratio (MICwithout Li/MICLi)” value (bacterial strain rOmyAK; Li^+ 423 mM (2964 ppm), Li2CO3)?
A: Its value is 6.

Q: And the MIC active/aequeous (bacterial strain rOmyAK; no Li^+)?
A: Its MIC active/aequeous is 106 ppm.

Q: And the “MIC ratio (MICwithout Li/MICLi)” value (E. coli strain ATCC11229)?
A: Its value is over 2.5.

Q: And the “MIC ratio (MICwithout Li/MICLi)” value [1]?
A: Its value is over 5.
